In PubChem BioAssay (NCI):
Several values for one entry are separate records, joined by “and”; a condition that tells them apart may be missing. Equal values may be shown once.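 Exposure lasted 48 hours, with cells grown in 96-well plates and compounds tested at five concentrations. At the GI50, growth is halved. TGI: concentration producing complete growth inhibition.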

How the values were obtained:
Assay in all cases: NCI-60 cell line screen, 48 h
[1] = system: CAKI-1 renal
[2] = system: COLO 205 colon
[3] = system: HCC-2998 colon
[4] = system: HCT-15 colon
[5] = system: HOP-62 NSCLC
[6] = system: IGROV1 ovarian
[7] = system: LOX IMVI melanoma
[8] = system: MDA-N
[9] = system: NCI-H460 lung
[10] = system: OVCAR-5 ovarian
[11] = system: RPMI-8226 leukemia
[12] = system: SF-268 CNS
[13] = system: SK-MEL-2 melanoma
[14] = system: SNB-19 CNS
[15] = system: U251 CNS
[16] = system: UACC-257 melanoma
[17] = system: UACC-62 melanoma
[18] = system: RXF 393 renal

SMILES | TGI [1] | TGI [2] | TGI [3] | TGI [4] | TGI [5] | TGI [6] | TGI [7] | TGI [8] | TGI [9] | TGI [10] | TGI [11] | TGI [12] | TGI [13] | TGI [14] | TGI [15] | TGI [16] | TGI [17] | TGI [18] | GI50 [2] | GI50 [11]
COc1cc2c(cc1OC)C1C=NC(C2)c2cc(OC)c(OC)cc21 (stereo not given) | > 100 µM | > 100 µM | > 100 µM | > 100 µM | > 100 µM | > 100 µM | > 100 µM | > 100 µM | > 100 µM | > 100 µM | > 100 µM | > 100 µM | > 100 µM | > 100 µM | > 100 µM | > 100 µM | > 100 µM |  |  | 
COc1c(F)c(F)c(/C(O)=C\c2nc3ccccc3[nH]c2=O)c(F)c1F | > 10 µM | > 10 µM | > 10 µM | > 10 µM | > 10 µM | > 10 µM | 8.34 µM | > 10 µM |  |  | > 10 µM | > 10 µM |  |  |  | > 10 µM | > 10 µM | > 10 µM |  | 
CS(=O)(=O)OCC1CN(S(C)(=O)=O)c2cc(O)ccc21 (stereo not given) | 14.2 µM | 5.95 µM | 4.47 µM | 12.2 µM | 7.01 µM | 22.4 µM | 13.3 µM | 4.52 µM | 10.5 µM | 18.3 µM | 12.2 µM | 13.5 µM | 6.88 µM |  | 7.26 µM | 7.72 µM |  | 3.47 µM |  | 
N#Cc1sc2c(c1OC(=O)c1ccccc1)c(=O)n(-c1ccccc1)c(=S)n2-c1ccccc1 | > 100 µM | 34.2 µM | 68.9 µM | 39.4 µM | 46.5 µM | 45.7 µM | 51.7 µM | 65.1 µM | > 100 µM |  | 66.5 µM | > 100 µM | 80.3 µM | > 100 µM | 53.3 µM | > 100 µM | 40.9 µM | 32.7 µM |  | 
CSc1nc2c(c(=O)[nH]1)N=C(c1ccc([N+](=O)[O-])cc1)CC(c1ccccc1)N2 (stereo not given) | > 100 µM | > 100 µM | 57.7 µM |  | > 100 µM | > 100 µM | 92.4 µM | > 100 µM |  | > 100 µM | 57.5 µM |  | 88.5 µM | > 100 µM | > 100 µM | > 100 µM | > 100 µM | > 100 µM |  | 
O=C(NNCC(O)COc1ccccc1)c1ccccc1 (stereo not given) | > 100 µM | > 100 µM | > 100 µM | > 100 µM | > 100 µM | > 100 µM | > 100 µM | > 100 µM |  | > 100 µM | > 100 µM |  | > 100 µM | > 100 µM | > 100 µM | > 100 µM | > 100 µM | > 100 µM |  | 
COC(=O)[C@@H]1CC(C(C[N+](=O)[O-])c2ccc(O[Si](C)(C)C(C)(C)C)cc2)C(=O)N1C(=O)OC(C)(C)C (stereo not given in full) | > 100 µM | > 100 µM |  |  | > 100 µM | > 100 µM | > 100 µM | > 100 µM |  | > 100 µM | 72.4 µM and 95 µM | > 100 µM | > 100 µM | > 100 µM | > 100 µM | > 100 µM |  | > 100 µM | > 100 µM and 26.2 µM | 3.2 µM and 23.7 µM
